Structures are written as SMILES. Like-named read-outs stand apart in the source and are kept apart here.

This assay has as its system HIV-1 (NL4-3 strain). Briefly: Assay for inhibition of HIV replication (ViKinG; infected MT4-GFP cells). Type of assay: cell-based. The method in brief:
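MT4-GFP cells infected with NL4-3 at low MOI for 24 h, washed, then exposed to serially diluted compound (0.4% DMSO) in RPMI. GFP+ cells counted at 24 and 48 h; R0 = 48 h/24 h ratio, inhibition normalised to DMSO and triple-drug controls, IC50 from 4-parameter fit.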

Where [1] appears, read: Human immunodeficiency virus 1, NL43, MT4-GFP cells infected with HIV-1 NL4-3, 0% normal human serum (NHS), read-out: ViKinG IP (nM) with 0% NHS.
Where [2] appears, read: Human immunodeficiency virus 1, NL43, MT4-GFP cells infected with HIV-1 NL4-3, 10% normal human serum (NHS), read-out: ViKinG IP (nM) with 10% NHS.
Setting [3] is: Human immunodeficiency virus 1, NL43, MT4-GFP cells infected with HIV-1 NL4-3, 100% normal human serum (NHS), read-out: ViKinG IP (nM) with 100% NHS.
Setting [4] is: MT4-GFP cells infected with HIV-1 NL4-3, 0% normal human serum (NHS), read-out: ViKinG IP (nM) with 0% NHS.
Where [5] appears, read: MT4-GFP cells infected with HIV-1 NL4-3, 10% normal human serum (NHS), read-out: ViKinG IP (nM) with 10% NHS.
The mark [6] stands for this setting: MT4-GFP cells infected with HIV-1 NL4-3, 100% normal human serum (NHS), read-out: ViKinG IP (nM) with 100% NHS.

Turning to `C[C@@H]1CC2(CC[C@@H]1C(=O)N(C)C)N(C)C(=O)c1c(O)c(=O)c(-c3nnc(Cc4ccc(F)cc4)s3)cn1N2C` (some centres unmarked) [Compound 150], the IC50 by setting is: under setting [1], 13.3 nM; under setting [2], 18.9 nM; under setting [3], 221 nM.
On to `CCN1C(=O)c2c(O)c(=O)c(-c3cn(Cc4ccc(F)cc4F)nn3)cn2CC12CCC2` [Compound 216], for which the IC50 runs as follows: under setting [1], 13.2 nM; under setting [3], 332 nM.
The matching figures for `CN1C(=O)c2c(O)c(=O)c(-c3nnc(Cc4ccc(F)cc4F)s3)cn2N(C)C12CC[C@@H](C(=O)NC1CC1)C(C)(C)C2` (some centres unmarked) [Compound 142]: 5.63 nM and 558 nM.
`CN1C(=O)c2c(O)c(=O)c(-c3nnc(Cc4ccc(F)cc4F)s3)cn2N(C)C12CCC(C(N)=O)CC2` (centres unmarked) [Compound 106]: the IC50 under setting [4] is 186 nM and the IC50 under setting [5] amounted to 812 nM.
With `CCN1C(=O)c2c(O)c(=O)c(-c3nnc(Cc4ccc(F)cc4)s3)cn2N(C)C1C1CCOCC1` (racemic) [Compound 219], the IC50 under setting [2] is 26.9 nM.
`COCCN1C(=O)c2c(O)c(=O)c(C(=O)NCc3ccc(F)cc3F)cn2CC12CC2` [Compound 180]: the IC50 under setting [1] was found to be 1.8 nM and the IC50 under setting [3] is 611 nM.
Turning to `CN1C2CCCCN2C(=O)c2c(O)c(=O)c(-c3nnc(Cc4ccc(F)cc4)s3)cn21` (centres unmarked) [Compound 153], the IC50 is 1430 nM under setting [3] and 16.5 nM under setting [5].
With `CCN1C(=O)c2c(O)c(=O)c(-c3nnc(Cc4ccc(F)cc4)s3)cn2N(C)C1c1ccn[nH]1` (centres unmarked) [Compound 6], the IC50 by setting is: under setting [2], 30.8 nM; under setting [3], 357 nM.
In the case of `COC1CCC2(CC1)Cn1cc(-c3nnc(Cc4ccc(F)cc4F)s3)c(=O)c(O)c1C(=O)N2C` (centres unmarked) [Compound 212], the IC50 reads like this: under setting [1], 3.49 nM; under setting [6], 90.7 nM.
As to `CCN1C(=O)c2c(O)c(=O)c(-c3nnc(Cc4ccc(F)cc4)s3)cn2N(C)C12CCC(C(=O)N(C)C)CC2` (centres unmarked) [Compound 94], the IC50 under setting [3] came to 130 nM and the IC50 under setting [5] worked out at 9.83 nM.
Regarding `CCN1C(=O)c2c(O)c(=O)c(-c3nnc(Cc4ccc(F)cc4F)s3)cn2N(C)C12CCC(OC)CC2` (centres unmarked) [Compound 26], the IC50 reads like this: under setting [2], 9.22 nM; under setting [3], 115 nM; under setting [4], 2.83 nM.
`CN1C(=O)c2c(O)c(=O)c(-c3nnc(Cc4ccc(F)cc4F)s3)cn2N(C)C12CCC(C(=O)NCC1(O)CC1)CC2` (centres unmarked) [Compound 124]: the IC50 by setting is: under setting [4], 11.3 nM; under setting [5], 22.6 nM.
Consider `CN1C(=O)c2c(O)c(=O)c(C(=O)NCc3ccc(F)cc3F)cn2N(C)[C@]12CC[C@@H]1C[C@@H]12` [Compound 186], for which the IC50 runs as follows: under setting [1], 1.74 nM; under setting [3], 283 nM.
As to `CN1C(=O)c2c(O)c(=O)c(-c3nnc(Cc4ccc(F)cc4F)s3)cn2N(C)C12CCC(C(=O)N1CCCC1)CC2` (centres unmarked) [Compound 115], the IC50 reads like this: under setting [4], 16.4 nM; under setting [5], 39.5 nM.
As to `CN1C2COCCN2C(=O)c2c(O)c(=O)c(-c3nnc(Cc4ccc(F)cc4)s3)cn21` (centres unmarked) [Compound 161], the IC50 turned out to be 41.1 nM under setting [5] and 465 nM under setting [6].
In the case of `CN1C(=O)c2c(O)c(=O)c(-c3nnc(Cc4ccc(F)cc4F)s3)cn2N(C)C12CCC(O)C2` (centres unmarked) [Compound 79], the IC50 under setting [1] came out at 3.11 nM and the IC50 under setting [2] is 40.9 nM.
For the molecule `CCN1C(=O)c2c(O)c(=O)c(-c3nnc(Cc4ccc(F)cc4F)s3)cn2N(C)C12CCCC(=O)C2` (racemic) [Compound 43], the IC50 runs as follows: under setting [1], 40.7 nM; under setting [2], 275 nM.
In the case of `CCN1C(=O)c2c(O)c(=O)c(-c3nnc(Cc4ccc(F)cc4)s3)cn2N(C)C12CCC(CC(=O)N(C)C)CC2` (centres unmarked) [Compound 97], the IC50 by setting is: under setting [2], 23.4 nM; under setting [3], 133 nM.
With `CCOC1CCC2(CC1)N(CC)C(=O)c1c(O)c(=O)c(C(=O)NCc3ccc(F)cc3F)cn1N2C` (centres unmarked) [Compound 192], the IC50 by setting is: under setting [4], 3.66 nM; under setting [6], 67.2 nM.
Consider `CCN1C(=O)c2c(O)c(=O)c(-c3nnc(Cc4ccc(F)cc4F)s3)cn2N(C)C1C1(C)CC1` (racemic) [Compound 17], for which the IC50 by setting is: under setting [2], 138 nM; under setting [3], 4070 nM.
As for `CCN1C(=O)c2c(O)c(=O)c(-c3nnc(Cc4ccc(F)cc4F)s3)cn2N(C)C12CCC(C(=O)OC)C2` (centres unmarked) [Compound 19], the IC50 runs as follows: under setting [2], 22.8 nM; under setting [3], 314 nM.
As to `CN1n2cc(-c3nnc(Cc4ccc(F)cc4F)s3)c(=O)c(O)c2C(=O)NC12CC[C@H]1C[C@H]12` (mixture of isomers) [Compound 201], the IC50 came to 3.82 nM under setting [1] and 575 nM under setting [3].
As to `CN1C(=O)c2c(O)c(=O)c(-c3nnc(Cc4ccc(F)cc4F)s3)cn2N(C)C12CCC(C(=O)N1CC(F)(F)C1)CC2` (centres unmarked) [Compound 119], the IC50 runs as follows: under setting [1], 5.26 nM; under setting [5], 35.6 nM; under setting [6], 189 nM.
In the case of `CN(C(=O)C1CCC2(CC1)N(C)C(=O)c1c(O)c(=O)c(-c3nnc(Cc4ccc(F)cc4F)s3)cn1N2C)C1CC1` (centres unmarked) [Compound 109], the IC50 runs as follows: under setting [2], 18.2 nM; under setting [4], 12.1 nM.
Take `COC(=O)[C@@]12C[C@@H]1CCC21N(C)C(=O)c2c(O)c(=O)c(-c3nnc(Cc4ccc(F)cc4F)s3)cn2N1C` (mixture of isomers) [Compound 199]: the IC50 is 5.42 nM under setting [1], 13.9 nM under setting [2] and 202 nM under setting [3].
On to `CCN1C(=O)c2c(O)c(=O)c(-c3nnc(Cc4ccc(F)cc4)s3)cn2N(C)C1(C)COC` (racemic) [Compound 223], for which the IC50 under setting [3] amounted to 369 nM.
`CCN1C(=O)c2c(O)c(=O)c(-c3nnc(Cc4ccc(F)cc4F)s3)cn2N(C)C12CCC(O)CC2` (centres unmarked) [Compound 51]: the IC50 was found to be 204 nM under setting [3] and 8.5 nM under setting [4].
On to `CN1C2COCCN2C(=O)c2c(O)c(=O)c(-c3nnc(Cc4ccc(F)cc4F)s3)cn21` (racemic) [Compound 160], for which the IC50 by setting is: under setting [2], 22.6 nM; under setting [3], 298 nM.
`CN1C(=O)c2c(O)c(=O)c(-c3nnc(Cc4ccc(F)cc4F)s3)cn2N(C)C12CCC(C(=O)O)CC2` (centres unmarked) [Compound 88]: the IC50 runs as follows: under setting [4], 1280 nM; under setting [5], 4200 nM.
Turning to `CCN1C(=O)c2c(O)c(=O)c(-c3nnc(Cc4ccc(F)cc4F)s3)cn2N(C)C12CCC(c1n[nH]c(=O)o1)CC2` (centres unmarked) [Compound 34], the IC50 is, setting by setting: under setting [2], 23.6 nM; under setting [3], 180 nM.
Regarding `CN(C)C(=O)C1CCC2(CC1)N(C)C(=O)c1c(O)c(=O)c(-c3nnc(Cc4ccc(F)cc4)s3)cn1N2C` (centres unmarked) [Compound 146], the IC50 by setting is: under setting [3], 188 nM; under setting [5], 9.02 nM.
`CN1C(=O)c2c(O)c(=O)c(-c3nnc(Cc4ccc(F)cc4F)s3)cn2N(C)C12CCC(C(=O)NC1(C)CC1)CC2` (centres unmarked) [Compound 114]: the IC50 under setting [4] was determined as 4.69 nM and the IC50 under setting [5] came to 9.07 nM.
`CN1C(=O)c2c(O)c(=O)c(-c3nnc(Cc4ccc(F)cc4F)s3)cn2N(C)C12CCC1C(=O)NC(=O)C1C2` (centres unmarked) [Compound 80]: the IC50 under setting [1] came to 50.1 nM and the IC50 under setting [3] was 915 nM.
For `COc1cc(CNC(=O)C2CCC3(CC2)N(C)C(=O)c2c(O)c(=O)c(-c4nnc(Cc5ccc(F)cc5F)s4)cn2N3C)on1` (centres unmarked) [Compound 136], the IC50 under setting [4] was found to be 30.8 nM and the IC50 under setting [5] amounted to 151 nM.
Consider `CCN1C(=O)c2c(O)c(=O)c(-c3nnc(Cc4ccc(F)cc4)s3)cn2N(C)C12CCCCC2` [Compound 222], for which, under setting [1], the IC50 turned out to be 1.28 nM.
As for `C[C@H]1CC2(CC[C@@H]1C(=O)N(C)C)N(C)C(=O)c1c(O)c(=O)c(-c3nnc(Cc4ccc(F)cc4)s3)cn1N2C` (some centres unmarked) [Compound 149], under setting [2], the IC50 was 43.7 nM.
On to `CCN1C(=O)c2c(O)c(=O)c(-c3nnc(Cc4ccc(F)cc4F)s3)cn2N(C)C12CCC(CC(=O)OC)CC2` (centres unmarked) [Compound 21], for which the IC50 under setting [2] is 31.8 nM.
For the molecule `CCN1C(=O)c2c(O)c(=O)c(-c3nnc(Cc4ccc(F)cc4F)s3)cn2N(C)C12CCC(CC(=O)OC)C2` (centres unmarked) [Compound 20], the IC50 under setting [2] worked out at 28.7 nM and the IC50 under setting [3] was 218 nM.
`CCN1C(=O)c2c(O)c(=O)c(-c3nnc(Cc4ccc(F)cc4)s3)cn2N(C)C12CCC(C(=O)NC1CC1)CC2` (centres unmarked) [Compound 96]: the IC50 runs as follows: under setting [1], 8.63 nM; under setting [2], 16.2 nM; under setting [3], 171 nM.
As to `O=C1NC2(CCC2)Cn2cc(-c3nnc(Cc4ccc(F)cc4F)s3)c(=O)c(O)c21` [Compound 210], the IC50 reads like this: under setting [1], 4.11 nM; under setting [2], 68.4 nM.

(Values after patent US9714243B2, “4-pyridinonetriazine derivatives as HIV integrase inhibitors” (Merck Sharp & Dohme Corp., priority 2012, dated 2017).)
